The test relates to hepatic function and portal-systemic shunting in subjects with CLD. Put plainly: HepQuant SHUNT test (DSI and SHUNT %) relative to concomitant drug therapy in the SHUNT-V clinical study. Format: in vivo, human. To be noted: for Coefficient (Δ DSI score): multi-variable regression analysis of prescribed medications, Base DSI 27.0682; for ΔDSI: univariable regression analysis, 270 SHUNT-V subjects with CLD, on drug vs not on drug, lower DSI = better hepatic function. The text has this: For example, a HepQuant® cholate liver function test (HepQuant, LLC) can be used to determine the presence and severity of liver diseases. A HepQuant® test can be a HepQuant® DSI test, HepQuant® SHUNT test or a HepQuant® STAT test. […] The term “SHUNT test” refers to a previously disclosed QLFT (quantitative liver function test) used as a comprehensive assessment of hepatic blood flow and liver function. The SHUNT test may be used to determine plasma clearance of orally and intravenously administered distinguishable cholic acids in subjects with and without chronic liver disease. SHUNT fraction or percent quantifies the spillover of the PO d4-cholate into the systemic circulation from the ratio of the clearance of the intravenously administered 13C-cholate to the clearance of the orally administered d4-cholate. In the SHUNT test, at least 5 blood samples are analyzed which have been drawn from a patient at intervals over a period of about 90 minutes after oral and intravenous administration of differentiable cholates. The SHUNT test is disclosed in Everson et al., U.S. Pat. […] The “SHUNT test value” refers to a number (in %). The term “SHUNT %” represents a quantitative measurement of portal-systemic shunting. SHUNT % is a measurement of the percentage of spillover of the orally administered d4-cholate. The first-pass hepatic elimination of cholate in percent of orally administered cholate is defined as (100%—SHUNT). Analysis of samples for stable isotopically labeled cholates is performed by, e.g., GC-MS, following sample derivitization, or LC-MS, without sample derivitization, or LC-MS/MS, or MS/MS. The ratio of the AUCs of orally to intravenously administered cholic acid, corrected for administered doses, defines cholate shunt. The cholate shunt can be calculated using the formula: AUCoral/AUCiv×Doseiv/Doseoral×100%, wherein AUCoral is the area under the curve of the serum concentrations of the orally adminstered cholic acid and AUCiv is the area under the curve of the intravenously administered cholic acid. The SHUNT test allows measurement of first-pass hepatic elimination of bile acids from the portal circulation. The term “DSI test” refers to a cholate Disease Severity Index test which is derived from one or more liver function test results based on hepatic blood flow. The DSI score is a function of the sum of cholate clearances from systemic and portal circulations adjusted to disease severity ranging from healthy subjects to end stage liver disease. DSI is a score without units representing a quantitative measurement of liver function. A disease severity index (DSI) value may be obtained in a patient by a method comprising (a) obtaining one or more liver function test values in a patient having or at risk of a chronic liver disease, wherein the one or more liver function test values are obtained from one or more liver function tests selected from the group consisting of SHUNT, portal hepatic filtration rate (portal HFR), and systemic hepatic filtration rate (systemic HFR); and (b) employing a disease severity index equation (DSI equation) to obtain a DSI value in the patient, wherein the DSI equation comprises one or more terms and a constant to obtain the DSI value, wherein at least one term of the DSI equation independently represents a liver function test value in the patient, or a mathematically transformed liver function test value in the patient from step; and the at least one term of the DSI equation is multiplied by a coefficient specific to the liver function test. DSI is an index, or score, that encompasses the cholate clearances from both systemic and portal circulations. DSI has a range from 0 (healthy) to 50 (severe end-stage disease) and is calculated from both HFRs. […] DSI test methods and equations are disclosed in U.S. Pat. Nos. 9,091,701, 9,759,731, 10,520,517, each of which is incorporated herein by reference in its entirety. Additional DSI equations have been developed and are provided herein.

[1] abbreviates: ON-OFF drug, subset of 130 subjects taking anti-diabetic drug therapies (Table 6, FIG. 18).
Where [2] appears, read: multi-variable regression with statins, metformin, diabetes diagnosis and NASH diagnosis.

The values that follow come from patent US20220378786A1, “METHODS OF DEFINING FUNCTIONAL CHANGE AND SLOWING PROGRESSION IN CHRONIC LIVER DISEASE” (priority 2021, published 2022).

Turning to `CN(C)C(=N)N=C(N)N` [Metformin, metformin], the “Coefficient (Δ DSI score)” value is −2.2637 and the ΔDSI is −4.1777. Also, under setting [1], the “mean difference in DSI” value is listed as −2.4 and the “mean difference in SHUNT” value is listed as −7.4%. In addition, under setting [2], the “Decline in DSI” value is reported as −2.4337 and the “Decline in SHUNT %” value is on record as −5.9%. Further, the “Resultant DSI” value (multi-variable regression, Base DSI 27.0682 plus coefficients, cumulative down the table (metformin line includes the statin coefficient)) is 21.55. The “% Reduction in DSI” value (multi-variable regression, relative to Base DSI 27.0682, cumulative down the table (metformin line includes statins)) is reported as −20.4%.
Consider `CCc1ccc(CCOc2ccc(CC3SC(=O)NC3=O)cc2)nc1` (centres unmarked) [Pioglitazone], for which the “Coefficient (Δ DSI score)” value is 0.2725 and the ΔDSI was −2.4995.
The matching figures for “Insulin: insulin, anti-diabetic drug therapy”: −0.7947 and −2.746.
The matching figures for Vitamin E: −1.6505 and −2.0475.
